What was measured:
[1] = system: RAS farnesylation in the v-ras cell line; assay: In vivo ras farnesylation assay (inhibition of RAS farnesylation in the v-ras cell line); type: cell-based; details: 4 h at 37° C. before labelling, additional 20 h, Table 2
Method: In vivo ras farnesylation assay
The cell line used in this assay was the v-ras line, which expressed viral Ha-ms p21. The assay was performed essentially as described in DeClue, J. E. et. al., Cancer Research 51, 712-717, (1991). Cells in 10 cm dishes at 50-75% confluency were treated with the test compound (final concentration of solvent, methanol or dimethyl sulfoxide, was 0.1%). After 4 hours at 37° C., the cells were labelled in 3 ml methionine-free DMEM supplemented with 10% regular DMEM, 2% fetal bovine serum and 400 μCi[^35 S]methionine (1000 Ci/mmol). After an additional 20 hours, the cells were lysed in 1 ml lysis buffer (1% NP40/20 mM HEPES, pH 7.5/5 mM Mg/Cl2 /1mM DTT/10 μg/ml aprotinen/2 μg/ml leupeptin/2 μg/ml antipain/0.5 mM PMSF) and the lysates cleared by centrifugation at 100,000×g for 45 minutes. Aliquots of lysates containing equal numbers of acid-precipitable counts were bought to 1 ml with IP buffer (lysis buffer lacking DTT) and immunoprecipitated with the ras-specific monoclonal antibody Y13-259 (Furth, M. E. et. al., J. Virol. 43, 294-304, (1982)). Following a 2 hour antibody incubation at 4° C., 200 μl of a 25% suspension of protein A-Sepharose coated with rabbit anti rat IgG was added for 45 minutes. The immunoprecipitates were washed four times with IP was buffer ([…] HEPES, pH 7.5/1 mN EDTA/1% Triton X-100.0.5% deoxycholate/0.1%/SDS.0.1M NaCl) boiled in SDS-Page sample buffer and loaded on 13% acrylamide gels. When the dye front reached the bottom, the gel was fixed, soaked in Enlightening, dried and autoradiographed. The intensities of the bands corresponding to farnesylated and nonfarnesylated ras proteins were compared to determine the percent inhibition of farnesyl transfer to protein.

[2] = target: recombinant human farnesyl transferase (Homo sapiens, UniProt P49354+P49356); assay: In vitro inhibition of ras farnesyl transferase; type: biochemical; details: concentration of test compound giving 50% inhibition of FTase, Table 1, read-out: IC50 (inhibition of RAS farnesylation)
Method: In vitro inhibition of ras farnesyl transferase
The assay was conducted as described in Pompliano, et. al., Biochemistry 31, 3800 (1992) with the exception of utilizing recombinant human farnesyl transferase in place of the partially purified bovine enzyme described therein.
*(IC50 is the concentration of the test compound which gives 50%
inhibition of FTase under the described assay conditions.

[3] = Observation on the isolated TFA salt (hygroscopicity, stability in solution); type: physicochemical

Row | Compound | IC50 [2] | IC50 [1] | further results
1 | C=CC[C@H](OC[C@@H](NC[C@@H](N)CS)[C@@H](C)CC)C(=O)N[C@H]1CCOC1=O [2(S)-[2(S)-[2(R)-Amino-3-mercapto]propylamino-3(S)-methyl]-pentyloxy-4-pentenoyl-homoserine lactone] |  | 10000 nM | 
2 | CC[C@H](C)[C@@H](CO[C@@H](Cc1ccccc1)C(=O)N[C@@H](CCS(C)(=O)=O)C(=O)O)NC[C@@H](N)CS [2(S)-[2(S)-[2(R)-Amino-3-mercapto]propylamino-3(S)-methyl]-pentyloxy-3-phenylpropionyl-methionine sulfone] | 2.2 nM |  | 
3 | CC[C@H](C)[C@@H](CO[C@@H](CC(C)C)C(=O)N[C@H]1CCOC1=O)NC[C@@H](N)CS [2(S)-[2(S)-[2(R)-Amino-3-mercapto]propylamino-3(S)-methyl]pentyloxy4-methylpentanoyl-homoserine lactone] |  | 10000 nM | 
4 | CC[C@H](C)[C@@H](CO[C@@](C)(Cc1ccccc1)C(=O)N[C@H]1CCOC1=O)NC[C@@H](N)CS [2(S)-[2(S)-[2(R)-Amino-3-mercapto]propylamino-3(S)-methyl]pentyloxy-2-methyl-3-phenylpropionyl-homoserine lactone] |  | 50000 nM | 
5 | CC[C@H](C)[C@@H](CO[C@@H](Cc1ccccc1)C(=O)N[C@@H](CCSC)C(=O)OC)NC[C@@H](N)CS [2(S)-[2(S)-[2(R)-Amino-3-mercapto]propylamino-3(S)-methyl]pentyloxy-3-phenylpropionyl-methionine methyl ester] |  | 100 nM | 
6 | CCC[C@H](OC[C@@H](NC[C@@H](N)CS)[C@@H](C)CC)C(=O)N[C@@H](CCO)C(=O)O [2(S)-[2(S)-[2(R)-Amino-3-mercapto]propylamino-3(S)-methyl]-pentyloxy-pentanoyl-homoserine] | 7 nM |  | 
7 | CC[C@H](C)[C@@H](CO[C@@H](Cc1ccccc1)C(=O)N[C@H]1CCOC1=O)NC[C@@H](N)CS [2(S)-[2(S)-[2(R)-Amino-3-mercapto]propylamino-3(S)-methyl]pentyloxy-3-phenylpropionyl-homoserine lactone] |  | 2500 nM | hygroscopicity [3]: hygroscopic; stability (disulphide formation) ([3]; left in solution and exposed to air): prone to disulphide formation if left in solution and exposed to air
8 | CC[C@H](C)[C@@H](CO[C@@H](Cc1ccccc1)C(=O)N[C@@H](CCS(C)(=O)=O)C(=O)OC(C)C)NC[C@@H](N)CS [2(S)-[2(S)-[2(R)-Amino-3-mercapto]-propylamino-3(S)-methyl]pentyloxy-3-phenylpropionyl-methionine sulfone isopropyl ester] |  | 100 nM | 
9 | CCC[C@H](OC[C@@H](NC[C@@H](N)CS)[C@@H](C)CC)C(=O)N[C@H]1CCOC1=O [2(S)-[2(S)-[2(R)-Amino-3-mercapto]propylamino-3(S)-methyl]pentyloxy-pentanoyl-homoserine lactone] |  | 10000 nM | 
10 | C=CC[C@H](OC[C@@H](NC[C@@H](N)CS)[C@@H](C)CC)C(=O)N[C@@H](CCO)C(=O)O | 18 nM |  | 
11 | CC[C@H](C)[C@@H](CO[C@@H](Cc1ccccc1)C(=O)N[C@@H](CCS(C)(=O)=O)C(=O)OC)NC[C@@H](N)CS [2(S)-[2(S)-[2(R)-Amino-3-mercapto]propylamino-3(S)-methyl]pentyloxy-3-phenylpropionyl-methionine sulfone methyl ester] |  | 100 nM | 

Now from value to compound, other results behind:

Row | IC50 [2] | Compound | IC50 [1] | further results
12 | 1.4 nM | CC[C@H](C)[C@@H](CO[C@H](C(=O)N[C@@H](CCO)C(=O)O)C(C)C)NC[C@@H](N)CS [2(S)-[2(S)-[2(R)-Amino-3-mercapto]propylamino-3(S)-methyl]pentyloxy-3-methylbutanoyl-homoserine] |  | 
13 | 4 nM | CC[C@H](C)[C@@H](CO[C@@H](Cc1ccccc1)C(=O)N[C@@H](CCSC)C(=O)O)NC[C@@H](N)CS [2(S)-[2(S)-[2(R)-Amino-3-mercapto]propylamino-3(S)-methyl]pentyloxy-3-phenylpropionyl-methionine] |  | 
14 | 980 nM | CC[C@H](C)[C@@H](CS(=O)(=O)[C@@](C)(Cc1ccccc1)C(=O)N[C@@H](CCO)C(=O)O)NC[C@@H](N)CS [2(S)-[2(S)-[2(R)-Amino-3-mercapto]propylamino-3(S)-methyl]pentyl-sulfonyl-2-methyl-3-phenylpropionyl-homo-serine] |  | 
15 | 7 nM | CC[C@H](C)[C@@H](CO[C@@](C)(Cc1ccccc1)C(=O)N[C@@H](CCO)C(=O)O)NC[C@@H](N)CS [2(S)-[2(S)-[2(R)-Amino-3-mercapto]propylamino-3(S)-methyl]pentyloxy-2-methyl-3-phenylpropionyl-homoserine] |  | 
16 | 240 nM | CC[C@H](C)[C@@H](CS[C@@](C)(Cc1ccccc1)C(=O)N[C@@H](CCO)C(=O)O)NC[C@@H](N)CS [2(S)-[2(S)-[2(R)-Amino-3-mercapto]propylamino-3(S)-methyl]pentylthio-2-methyl-3-phenylpropionyl-homoserine] |  | 
17 | 19 nM | CC[C@H](C)[C@@H](CO[C@@H](CC(C)C)C(=O)N[C@@H](CCO)C(=O)O)NC[C@@H](N)CS [2(S)-[2(S)-[2(R)-Amino-3-mercapto]propylamino-3(S)-methyl]pentyloxy-4-methylpentanoyl-homoserine] |  | 
18 | 5 nM | CC[C@H](C)[C@@H](CO[C@@H](Cc1ccccc1)C(=O)N[C@@H](CCO)C(=O)O)NC[C@@H](N)CS [2(S)-[2(S)-[2(R)-Amino-3-mercapto]propylamino-3(S)-methyl]pentyloxy-3-phenylpropionyl-homoserine] |  | 
19 | 17 nM | CC[C@H](C)[C@@H](CO[C@H](C(=O)N[C@@H](CCO)C(=O)O)C(C)c1ccccc1)NC[C@@H](N)CS (stereo partly drawn) [2(S)-[2(S)-[2(R)-Amino-3-mercapto]propylamino-3(S)-methyl]pentyloxy-3-phenylbutanoyl-homoserine] |  | 

From US5686472A, “Inhibitors of farnesyl-protein transferase” (Merck & Co., Inc., priority 1993, dated 1997)
